The numbers were not newly measured in PMC7220402 (Medicine, 2020), which cites them from elsewhere.

As to `COc1c(C)c2c(c(O)c1C/C=C(\C)CCC(=O)O)C(=O)OC2` [MPA, mycophenolic acid], the “Variation in dose-normalized MPA exposure” value was 10 fold.
